According to PubChem BioAssay (NCI):
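Tested at 5 concentrations; 48 h exposure; 96-well plates; endpoints linearly interpolated, else capped at highest concentration. TGI denotes the concentration required for complete inhibition of growth.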

tested on: CAKI-1 renal; experiment: DTP human tumour cell line panel, 48 h

Compound | TGI [µM]
CC(=O)O[C@@H]1CC[C@@]2(C)C(CC[C@H]3[C@@H]4CC[C@H]([C@H](C)CCc5nc6ccc(C)cc6[nH]5)[C@@]4(C)CC[C@@H]32)C1 (some centres not stated) | > 100
COc1cccc(OC/C(N=Cc2cccnc2)=N/NC(=O)c2ccncc2)c1 | > 100
C/C1=C/C(C)CC(C)OC(=O)C(C)NC(=O)C(Cc2ccc(O)c(I)c2)N(C)C(=O)CNC(=O)C(C)C1 (configuration not stated) | < 0.01
Cc1ccc(-n2cnc3c(N)nc(N)nc32)cc1 | > 100
CC12CCC3[C@@H](CC3(C)C)C(O)(CCC1=O)C2 (some centres not stated) | > 100
CO[C@H]1c2cccc3cccc(c23)[C@@H]1n1[nH]c(=O)n(C(C)(C)C)c1=O | > 100
CCCCCCCCCCCCCCCCCCNc1ccn(C2OC(COP(=O)(O)OC3CC(n4cc(F)c(=O)[nH]c4=O)OC3COP(=O)(O)OCC3OC(n4ccc(N)nc4=O)C(O)C3O)C(O)C2O)c(=O)n1 (configuration not stated) | 35.5

tested on: NCI-H23 lung; experiment: DTP human tumour cell line panel, 48 h

Compound | TGI [µM]
N#CC(C#N)N=Cc1ccncc1 | > 100
COc1ccc2c(c1)/C(=C\c1c(C)nc3n1CCS3)C(=O)N2 | > 100
COC(=O)C1=C(O)C(C(=O)OC)[C@]2(O)[C@H](C(=O)OC)[C@H]1C[C@@H](c1ccc(F)cc1)[C@H]2C(=O)OC (some centres not stated) | 31
CCN(CC)c1cc2c3c(c1)CCCN3CCC2 | > 10
CN(C)C=C1C(=O)c2c(Br)sc(Br)c2C1=O | 37.8
CC(=O)O[C@H]1CC[C@H]2[C@@H]3CCC4C(C)=NNC(=O)C4[C@H]3CC[C@]12C (some centres not stated) | > 100
COc1cc2c[n+](C)c3c4cc5c(cc4ccc3c2cc1OC)OCO5 | 3.65
O=c1[nH]c(C23CC4CC(CC(C4)C2)C3)cc2c1c(=O)oc1ccccc12 | 23
CCN(CC)C(=C(C(Cl)=C(Cl)Cl)[N+](=O)[O-])N(CC)CC | > 100
O=C1C(=O)c2c(oc(=O)c3ccccc23)-c2ccccc21 | > 25
CCOC(=O)C(C(=O)OCC)=C1NC2(c3ccccc3Nc3ccc(C)cc32)C(C#N)S1 (configuration not stated) | 12.3
CN1CCC2(CC1)SC[C@H]1C(=O)N(c3ccc(Cl)cc3)C(=O)N12 | > 100
CC(C)=CCC[C@@H](C)C1=C(O)C(O)C(C)=C2N=C(c3ccccc3)C(=O)OC21 (some centres not stated) | 6.15
Cc1cc([C@H](C#N)c2nc3ccccc3[nH]2)nc(Cl)n1 | > 100
CC(C)(C)[Si](C)(C)O[C@@H](C(=O)OC1C=CCCC1)[C@@H](NC(=O)c1ccccc1)c1ccccc1 (some centres not stated) | > 100
Cc1oc2c(c1C)S(=O)(=O)C(C#N)=C(c1ccccc1)N2 | > 100
O=C1c2ccccc2C(O)(C(=O)O)C1(O)CC=C(Cl)Cl (configuration not stated) | > 125
CC(=O)O[C@@H]1CC[C@@]2(C)C(CC[C@H]3[C@@H]4CC[C@H]([C@H](C)CCc5nc6ccc(C)cc6[nH]5)[C@@]4(C)CC[C@@H]32)C1 (some centres not stated) | > 100
COc1cccc(OC/C(N=Cc2cccnc2)=N/NC(=O)c2ccncc2)c1 | > 100
C/C1=C/C(C)CC(C)OC(=O)C(C)NC(=O)C(Cc2ccc(O)c(I)c2)N(C)C(=O)CNC(=O)C(C)C1 (configuration not stated) | > 100
Cc1ccc(-n2cnc3c(N)nc(N)nc32)cc1 | > 100
CC12CCC3[C@@H](CC3(C)C)C(O)(CCC1=O)C2 (some centres not stated) | > 100
CO[C@H]1c2cccc3cccc(c23)[C@@H]1n1[nH]c(=O)n(C(C)(C)C)c1=O | > 100
CCCCCCCCCCCCCCCCCCNc1ccn(C2OC(COP(=O)(O)OC3CC(n4cc(F)c(=O)[nH]c4=O)OC3COP(=O)(O)OCC3OC(n4ccc(N)nc4=O)C(O)C3O)C(O)C2O)c(=O)n1 (configuration not stated) | > 45.7

tested on: SF-539 CNS; experiment: DTP human tumour cell line panel, 48 h

Compound | TGI [µM]
Nc1nc(N)c2cc(Sc3ccc4nc(N)nc(N)c4c3)ccc2n1 | > 100
N#CC(C#N)N=Cc1ccncc1 | > 100
COc1ccc2c(c1)/C(=C\c1c(C)nc3n1CCS3)C(=O)N2 | 54.7
COC(=O)C1=C(O)C(C(=O)OC)[C@]2(O)[C@H](C(=O)OC)[C@H]1C[C@@H](c1ccc(F)cc1)[C@H]2C(=O)OC (some centres not stated) | 41
CCN(CC)c1cc2c3c(c1)CCCN3CCC2 | > 10
CN(C)C=C1C(=O)c2c(Br)sc(Br)c2C1=O | 35.7
CC(=O)O[C@H]1CC[C@H]2[C@@H]3CCC4C(C)=NNC(=O)C4[C@H]3CC[C@]12C (some centres not stated) | > 100
COc1cc2c[n+](C)c3c4cc5c(cc4ccc3c2cc1OC)OCO5 | 5.32
O=c1[nH]c(C23CC4CC(CC(C4)C2)C3)cc2c1c(=O)oc1ccccc12 | 17.4
CCN(CC)C(=C(C(Cl)=C(Cl)Cl)[N+](=O)[O-])N(CC)CC | > 100
O=C1C(=O)c2c(oc(=O)c3ccccc23)-c2ccccc21 | > 25
CCOC(=O)C(C(=O)OCC)=C1NC2(c3ccccc3Nc3ccc(C)cc32)C(C#N)S1 (configuration not stated) | 12
CN1CCC2(CC1)SC[C@H]1C(=O)N(c3ccc(Cl)cc3)C(=O)N12 | > 100
CC(C)=CCC[C@@H](C)C1=C(O)C(O)C(C)=C2N=C(c3ccccc3)C(=O)OC21 (some centres not stated) | 13.8
Cc1cc([C@H](C#N)c2nc3ccccc3[nH]2)nc(Cl)n1 | > 100
CC(C)(C)[Si](C)(C)O[C@@H](C(=O)OC1C=CCCC1)[C@@H](NC(=O)c1ccccc1)c1ccccc1 (some centres not stated) | > 100
Cc1oc2c(c1C)S(=O)(=O)C(C#N)=C(c1ccccc1)N2 | > 100
O=C1c2ccccc2C(O)(C(=O)O)C1(O)CC=C(Cl)Cl (configuration not stated) | > 125
CC(=O)O[C@@H]1CC[C@@]2(C)C(CC[C@H]3[C@@H]4CC[C@H]([C@H](C)CCc5nc6ccc(C)cc6[nH]5)[C@@]4(C)CC[C@@H]32)C1 (some centres not stated) | > 100
COc1cccc(OC/C(N=Cc2cccnc2)=N/NC(=O)c2ccncc2)c1 | > 100
C/C1=C/C(C)CC(C)OC(=O)C(C)NC(=O)C(Cc2ccc(O)c(I)c2)N(C)C(=O)CNC(=O)C(C)C1 (configuration not stated) | 4.94
Cc1ccc(-n2cnc3c(N)nc(N)nc32)cc1 | > 100
CC12CCC3[C@@H](CC3(C)C)C(O)(CCC1=O)C2 (some centres not stated) | > 100
CO[C@H]1c2cccc3cccc(c23)[C@@H]1n1[nH]c(=O)n(C(C)(C)C)c1=O | > 100
CCCCCCCCCCCCCCCCCCNc1ccn(C2OC(COP(=O)(O)OC3CC(n4cc(F)c(=O)[nH]c4=O)OC3COP(=O)(O)OCC3OC(n4ccc(N)nc4=O)C(O)C3O)C(O)C2O)c(=O)n1 (configuration not stated) | 2.17

tested on: NCI-H460 lung; experiment: DTP human tumour cell line panel, 48 h

Compound | TGI [µM]
Nc1nc(N)c2cc(Sc3ccc4nc(N)nc(N)c4c3)ccc2n1 | > 100
